Laboratory results published in patent publication US7759331B2, “Pyridine-containing macroheterococylic compounds as kinase inhibitors” (Janssen Pharmaceutica NV, priority 2006, dated 2010).

Experiments:
Assay in all cases: Protein kinase selectivity panel
Details in all cases: 1.0 μM compound, 10 μM ATP
CK1(y) = assay type: biochemical, yeast
Method: (§1) Protein kinase selectivity assays were performed as described in the scientific literature (Davies, S. P., et al., Biochem. J. 2000, 351, 95-105). Briefly, protein kinases were assayed for their ability to phosphorylate the appropriate peptide/protein substrates in the presence of 1.0 μM compound. Assays were done using 10 μM ATP and were linear with respect to time. The protein kinase selectivity assays were performed by Upstate Cell Signaling Solutions using Upstate's KinaseProfiler™ Selectivity Screening Service.

PKA(b) = PKA(b) (Bos taurus, UniProt P00517); assay type: biochemical, bovine
Method: as §1

Abl(T315l)(h) = Abl(T315l)(h) (Homo sapiens, UniProt P00519, T315I); assay type: biochemical
Method: as §1

Abl(m) = Abl(m) (Mus musculus, UniProt P00520); assay type: biochemical
Abl(m), sequence (P00520 whole entry): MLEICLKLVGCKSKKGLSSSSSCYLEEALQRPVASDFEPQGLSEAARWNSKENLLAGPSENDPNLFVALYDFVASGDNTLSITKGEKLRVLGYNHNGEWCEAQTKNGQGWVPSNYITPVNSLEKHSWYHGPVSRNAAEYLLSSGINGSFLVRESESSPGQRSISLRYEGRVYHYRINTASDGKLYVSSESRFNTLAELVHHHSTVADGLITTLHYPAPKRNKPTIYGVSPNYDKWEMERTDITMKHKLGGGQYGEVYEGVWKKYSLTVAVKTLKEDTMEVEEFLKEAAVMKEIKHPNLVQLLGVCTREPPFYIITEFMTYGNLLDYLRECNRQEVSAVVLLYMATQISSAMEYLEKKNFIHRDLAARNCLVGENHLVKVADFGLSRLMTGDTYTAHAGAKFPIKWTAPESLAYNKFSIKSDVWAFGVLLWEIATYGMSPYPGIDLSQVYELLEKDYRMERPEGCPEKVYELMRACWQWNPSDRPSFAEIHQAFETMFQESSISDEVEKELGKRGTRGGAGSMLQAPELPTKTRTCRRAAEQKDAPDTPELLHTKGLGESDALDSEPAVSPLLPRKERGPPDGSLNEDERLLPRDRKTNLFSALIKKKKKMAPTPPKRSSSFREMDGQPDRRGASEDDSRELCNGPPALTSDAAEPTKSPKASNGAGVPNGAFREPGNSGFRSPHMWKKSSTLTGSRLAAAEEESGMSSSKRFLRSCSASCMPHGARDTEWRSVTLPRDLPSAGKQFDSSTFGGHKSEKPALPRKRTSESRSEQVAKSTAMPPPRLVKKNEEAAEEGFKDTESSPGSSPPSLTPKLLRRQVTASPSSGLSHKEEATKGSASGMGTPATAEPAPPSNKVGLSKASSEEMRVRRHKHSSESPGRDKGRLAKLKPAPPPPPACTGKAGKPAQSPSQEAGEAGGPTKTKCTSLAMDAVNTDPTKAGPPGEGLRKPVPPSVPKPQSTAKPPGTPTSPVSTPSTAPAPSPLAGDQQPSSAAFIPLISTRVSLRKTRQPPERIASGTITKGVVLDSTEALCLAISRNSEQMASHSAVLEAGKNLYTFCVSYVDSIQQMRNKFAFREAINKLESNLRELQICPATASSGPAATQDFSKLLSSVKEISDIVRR
Method: as §1

Blk(m) = Blk(m) (Mus musculus, UniProt P16277); assay type: biochemical
Method: as §1

CDK2/cyclinA(h) = CDK2/cyclinA(h) (Homo sapiens, UniProt P24941); assay type: biochemical
Method: as §1

EGFR(h) = EGFR(h) (Homo sapiens, UniProt P00533); assay type: biochemical
EGFR(h), sequence (P00533 25-1210): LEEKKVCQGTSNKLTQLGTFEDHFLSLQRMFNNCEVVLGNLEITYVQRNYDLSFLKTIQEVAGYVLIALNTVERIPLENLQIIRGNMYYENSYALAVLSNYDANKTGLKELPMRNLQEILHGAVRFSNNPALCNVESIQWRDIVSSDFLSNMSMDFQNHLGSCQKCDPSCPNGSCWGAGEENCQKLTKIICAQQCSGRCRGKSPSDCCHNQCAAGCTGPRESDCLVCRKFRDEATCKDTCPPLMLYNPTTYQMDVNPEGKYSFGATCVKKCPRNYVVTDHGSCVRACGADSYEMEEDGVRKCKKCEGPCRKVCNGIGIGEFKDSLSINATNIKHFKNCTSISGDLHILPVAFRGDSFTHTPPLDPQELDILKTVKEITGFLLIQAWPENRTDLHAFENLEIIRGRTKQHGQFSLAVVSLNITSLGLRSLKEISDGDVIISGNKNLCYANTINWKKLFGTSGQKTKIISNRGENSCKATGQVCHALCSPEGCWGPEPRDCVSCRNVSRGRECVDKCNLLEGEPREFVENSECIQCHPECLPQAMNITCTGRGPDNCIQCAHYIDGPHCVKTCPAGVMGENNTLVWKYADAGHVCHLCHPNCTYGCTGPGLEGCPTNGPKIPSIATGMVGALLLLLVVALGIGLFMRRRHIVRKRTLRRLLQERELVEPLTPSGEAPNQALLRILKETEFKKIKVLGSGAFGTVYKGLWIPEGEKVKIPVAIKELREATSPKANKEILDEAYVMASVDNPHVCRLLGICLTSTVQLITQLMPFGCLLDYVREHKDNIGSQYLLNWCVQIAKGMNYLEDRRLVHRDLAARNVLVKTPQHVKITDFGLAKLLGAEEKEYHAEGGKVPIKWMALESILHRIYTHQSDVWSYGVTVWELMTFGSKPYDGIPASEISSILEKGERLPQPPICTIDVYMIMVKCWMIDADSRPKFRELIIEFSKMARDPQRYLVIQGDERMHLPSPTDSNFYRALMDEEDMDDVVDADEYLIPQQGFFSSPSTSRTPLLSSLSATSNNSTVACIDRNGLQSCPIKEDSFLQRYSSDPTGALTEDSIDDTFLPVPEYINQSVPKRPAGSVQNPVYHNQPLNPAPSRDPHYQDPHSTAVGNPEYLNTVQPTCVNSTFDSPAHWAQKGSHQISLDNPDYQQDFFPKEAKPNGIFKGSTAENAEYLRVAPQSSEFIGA
Method: as §1

Fes(h) = Fes(h) (Homo sapiens, UniProt P07332); assay type: biochemical
Method: as §1

IKKα(h) = target: T1, IKKα(h) (Homo sapiens, UniProt O15111); assay type: biochemical
T1 sequence (O15111 1-745): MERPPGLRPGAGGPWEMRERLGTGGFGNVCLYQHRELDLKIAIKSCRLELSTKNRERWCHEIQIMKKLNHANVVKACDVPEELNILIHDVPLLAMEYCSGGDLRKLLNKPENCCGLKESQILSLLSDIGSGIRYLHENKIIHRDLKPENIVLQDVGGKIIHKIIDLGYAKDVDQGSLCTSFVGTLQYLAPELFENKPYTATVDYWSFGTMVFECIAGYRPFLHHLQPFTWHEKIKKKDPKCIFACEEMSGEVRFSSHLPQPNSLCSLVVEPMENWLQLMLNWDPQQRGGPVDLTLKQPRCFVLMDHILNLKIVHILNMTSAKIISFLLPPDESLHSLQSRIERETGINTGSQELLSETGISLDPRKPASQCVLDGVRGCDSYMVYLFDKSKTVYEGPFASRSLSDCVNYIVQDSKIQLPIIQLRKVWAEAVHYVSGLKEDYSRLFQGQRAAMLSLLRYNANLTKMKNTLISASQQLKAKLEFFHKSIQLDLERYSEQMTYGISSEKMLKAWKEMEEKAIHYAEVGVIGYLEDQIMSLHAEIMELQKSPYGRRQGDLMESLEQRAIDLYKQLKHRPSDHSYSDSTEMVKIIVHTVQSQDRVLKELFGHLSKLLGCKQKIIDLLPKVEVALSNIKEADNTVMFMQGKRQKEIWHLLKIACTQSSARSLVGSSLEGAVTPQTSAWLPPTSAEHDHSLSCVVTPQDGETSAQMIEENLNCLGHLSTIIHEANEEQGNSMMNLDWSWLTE
Method: as §1

JNK2α2(h) = JNK2α2(h) (Homo sapiens, UniProt P45984); assay type: biochemical
Method: as §1

Lyn(m) = Lyn(m) (Mus musculus, UniProt P25911); assay type: biochemical
Lyn(m), sequence (P25911 whole entry): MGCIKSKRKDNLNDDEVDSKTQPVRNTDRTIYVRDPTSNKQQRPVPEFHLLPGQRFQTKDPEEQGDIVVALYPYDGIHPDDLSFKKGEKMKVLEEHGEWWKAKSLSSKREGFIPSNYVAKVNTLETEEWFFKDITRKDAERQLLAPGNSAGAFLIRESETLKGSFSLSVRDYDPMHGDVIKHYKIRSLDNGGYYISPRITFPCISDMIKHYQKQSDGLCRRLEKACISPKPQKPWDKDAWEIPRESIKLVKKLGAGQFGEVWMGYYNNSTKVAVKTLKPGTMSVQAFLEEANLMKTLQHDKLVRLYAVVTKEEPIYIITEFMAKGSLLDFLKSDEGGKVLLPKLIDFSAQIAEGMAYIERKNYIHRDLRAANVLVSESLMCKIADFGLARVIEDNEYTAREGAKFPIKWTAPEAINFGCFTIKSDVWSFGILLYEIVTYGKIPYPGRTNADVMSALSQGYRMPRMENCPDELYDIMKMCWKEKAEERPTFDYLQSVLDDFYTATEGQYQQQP
Method: as §1

MAPK2(h) = MAPK2(h) (Homo sapiens, UniProt P28482); assay type: biochemical
MAPK2(h), sequence (P28482 whole entry): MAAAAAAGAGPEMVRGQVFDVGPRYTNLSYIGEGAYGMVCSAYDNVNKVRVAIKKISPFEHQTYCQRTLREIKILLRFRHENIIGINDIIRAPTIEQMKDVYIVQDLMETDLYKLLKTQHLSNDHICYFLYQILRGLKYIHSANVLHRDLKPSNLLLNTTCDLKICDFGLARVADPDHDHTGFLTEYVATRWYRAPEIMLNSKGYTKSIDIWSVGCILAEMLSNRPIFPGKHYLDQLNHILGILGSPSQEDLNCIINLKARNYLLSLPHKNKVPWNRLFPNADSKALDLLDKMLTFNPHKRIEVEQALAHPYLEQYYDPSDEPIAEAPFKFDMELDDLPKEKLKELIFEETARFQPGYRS
Method: as §1

MEK1(h) = MEK1(h) (Homo sapiens, UniProt Q02750); assay type: biochemical
Method: as §1

PDGFRα(h) = PDGFRα(h) (Homo sapiens, UniProt P16234); assay type: biochemical
Method: as §1

PKCγ(h) = PKCγ(h) (Homo sapiens, UniProt P05129); assay type: biochemical
Method: as §1

PKCμ(h) = target: T2, PKCμ(h) (Homo sapiens, UniProt Q15139); assay type: biochemical
T2 sequence (Q15139 1-912): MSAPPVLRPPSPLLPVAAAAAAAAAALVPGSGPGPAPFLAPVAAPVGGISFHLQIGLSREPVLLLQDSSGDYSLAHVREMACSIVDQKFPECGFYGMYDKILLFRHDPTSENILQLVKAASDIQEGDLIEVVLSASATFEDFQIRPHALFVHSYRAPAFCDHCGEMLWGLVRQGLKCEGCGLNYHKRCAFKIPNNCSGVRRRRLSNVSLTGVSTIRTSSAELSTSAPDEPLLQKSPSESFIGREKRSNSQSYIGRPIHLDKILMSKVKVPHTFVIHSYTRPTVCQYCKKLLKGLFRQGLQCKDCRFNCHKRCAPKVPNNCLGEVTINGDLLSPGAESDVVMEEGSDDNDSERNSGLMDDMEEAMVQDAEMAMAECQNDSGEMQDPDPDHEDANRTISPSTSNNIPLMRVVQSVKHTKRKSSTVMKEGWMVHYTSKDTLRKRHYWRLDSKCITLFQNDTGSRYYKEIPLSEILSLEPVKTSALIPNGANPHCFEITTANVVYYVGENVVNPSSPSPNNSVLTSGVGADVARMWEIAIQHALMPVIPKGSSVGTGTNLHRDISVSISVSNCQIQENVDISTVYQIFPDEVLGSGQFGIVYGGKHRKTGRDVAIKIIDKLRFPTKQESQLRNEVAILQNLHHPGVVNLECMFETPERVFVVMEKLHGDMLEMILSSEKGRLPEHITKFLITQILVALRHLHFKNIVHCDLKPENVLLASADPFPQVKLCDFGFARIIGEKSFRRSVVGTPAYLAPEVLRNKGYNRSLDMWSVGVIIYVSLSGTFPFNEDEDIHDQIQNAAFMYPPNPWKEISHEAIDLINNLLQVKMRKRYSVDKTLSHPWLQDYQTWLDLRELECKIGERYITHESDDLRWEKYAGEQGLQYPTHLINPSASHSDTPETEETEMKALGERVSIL
Method: as §1

Rsk2(h) = Rsk2(h) (Homo sapiens, UniProt P51812); assay type: biochemical
Rsk2(h), sequence (P51812 whole entry): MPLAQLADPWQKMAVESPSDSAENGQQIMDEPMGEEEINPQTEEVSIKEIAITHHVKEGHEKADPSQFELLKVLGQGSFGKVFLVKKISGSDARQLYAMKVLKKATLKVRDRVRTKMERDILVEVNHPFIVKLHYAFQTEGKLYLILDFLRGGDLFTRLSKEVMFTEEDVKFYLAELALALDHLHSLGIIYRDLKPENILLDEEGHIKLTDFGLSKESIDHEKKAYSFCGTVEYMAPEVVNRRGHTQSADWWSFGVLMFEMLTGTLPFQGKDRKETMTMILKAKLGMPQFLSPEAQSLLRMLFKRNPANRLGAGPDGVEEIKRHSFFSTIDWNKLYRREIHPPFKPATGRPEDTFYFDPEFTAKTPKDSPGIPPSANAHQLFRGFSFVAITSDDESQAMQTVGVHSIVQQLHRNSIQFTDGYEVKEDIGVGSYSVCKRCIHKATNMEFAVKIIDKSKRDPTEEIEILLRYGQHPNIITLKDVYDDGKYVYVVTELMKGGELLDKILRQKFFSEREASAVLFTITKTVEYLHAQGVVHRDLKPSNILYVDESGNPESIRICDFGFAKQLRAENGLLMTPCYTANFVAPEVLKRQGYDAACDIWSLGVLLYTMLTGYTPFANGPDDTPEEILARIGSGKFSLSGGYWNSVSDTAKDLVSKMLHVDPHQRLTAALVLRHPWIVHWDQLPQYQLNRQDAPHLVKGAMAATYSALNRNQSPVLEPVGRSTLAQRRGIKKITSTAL
Method: as §1

SAPK2a(h) = SAPK2a(h) (Homo sapiens, UniProt Q16539); assay type: biochemical
SAPK2a(h), sequence (Q16539 whole entry): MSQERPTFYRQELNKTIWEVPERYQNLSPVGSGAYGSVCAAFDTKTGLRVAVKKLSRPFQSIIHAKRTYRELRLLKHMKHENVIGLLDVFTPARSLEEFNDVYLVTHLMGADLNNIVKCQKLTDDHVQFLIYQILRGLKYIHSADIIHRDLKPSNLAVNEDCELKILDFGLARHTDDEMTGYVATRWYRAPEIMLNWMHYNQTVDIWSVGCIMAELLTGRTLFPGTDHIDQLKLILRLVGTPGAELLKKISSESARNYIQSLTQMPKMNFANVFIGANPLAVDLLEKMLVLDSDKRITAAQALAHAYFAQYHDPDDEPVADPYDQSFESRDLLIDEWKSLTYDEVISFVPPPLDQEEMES
Method: as §1

Row | SMILES | Activity at Protein Kinase Assays (% of control), CK1(y) (CK1(y)) | Activity at Protein Kinase Assays (% of control), PKA(b) (PKA(b)) | Activity at Protein Kinase Assays (% of control), Abl(T315l)(h) (Abl(T315l)(h)) | Activity at Protein Kinase Assays (% of control), Abl(m) (Abl(m)) | Activity at Protein Kinase Assays (% of control), Blk(m) (Blk(m)) | Activity at Protein Kinase Assays (% of control), CDK2/cyclinA(h) (CDK2/cyclinA(h)) | Activity at Protein Kinase Assays (% of control), EGFR(h) (EGFR(h)) | Activity at Protein Kinase Assays (% of control), Fes(h) (Fes(h)) | Activity at Protein Kinase Assays (% of control), IKKα(h) (IKKα(h)) | Activity at Protein Kinase Assays (% of control), JNK2α2(h) (JNK2α2(h)) | Activity at Protein Kinase Assays (% of control), Lyn(m) (Lyn(m)) | Activity at Protein Kinase Assays (% of control), MAPK2(h) (MAPK2(h)) | Activity at Protein Kinase Assays (% of control), MEK1(h) (MEK1(h)) | Activity at Protein Kinase Assays (% of control), PDGFRα(h) (PDGFRα(h)) | Activity at Protein Kinase Assays (% of control), PKCγ(h) (PKCγ(h)) | Activity at Protein Kinase Assays (% of control), PKCμ(h) (PKCμ(h)) | Activity at Protein Kinase Assays (% of control), Rsk2(h) (Rsk2(h)) | Activity at Protein Kinase Assays (% of control), SAPK2a(h) (SAPK2a(h))
1 | O=C1NC(=O)C2=C1c1cn(c3ccccc13)CCCc1ccc(c(N3CCCC3)n1)CCCn1cc2c2ccccc21 [Cpd 7, 31-pyrrolidin-1-yl-5,15,25,30-tetraazaheptacyclo[27.2.2.1^5,12.1^18,25.0^6,11.0^13,17.0^19,24]pentatriaconta-1(31),6,8,10,12(35),13(17),18(34),19,21,23,29,32-dodecaene-14,16-dione] | 98 % of control | 105 % of control | 103 % of control | 110 % of control | 91 % of control | 88 % of control | 104 % of control | 130 % of control | 121 % of control | 110 % of control | 104 % of control | 88 % of control | 98 % of control | 113 % of control | 102 % of control | 113 % of control | 63 % of control | 93 % of control
2 | CN(C)c1nc2ccc1CCCCn1cc(c3ccccc31)C1=C(C(=O)NC1=O)c1cn(c3ccccc13)CCC2 [Cpd 1, 31-(dimethylamino)-5,15,25,32-tetraazaheptacyclo[28.2.2.1^5,12.1^18,25.0^6,11.0^13,17.0^19,24]hexatriaconta-1(32),6,8,10,12(36),13(17),18(35),19,21,23,30,33-dodecaene-14,16-dione] | 91 % of control | 99 % of control | 100 % of control | 98 % of control | 109 % of control | 120 % of control | 94 % of control | 107 % of control | 92 % of control | 96 % of control | 90 % of control | 102 % of control | 76 % of control | 107 % of control | 91 % of control | 110 % of control | 32 % of control | 108 % of control
3 | O=C1NC(=O)C2=C1c1cn(c3ccccc13)CCCc1cc(nc(N3CCCC3)c1)CCCn1cc2c2ccccc21 [Cpd 6, 20-pyrrolidin-1-yl-4,14,19,26-tetraazaheptacyclo[24.6.1.1^7,14.1^18,22.0^2,6.0^8,13.0^27,32]pentatriaconta-1(33),2(6),7(35),8,10,12,18(34),19,21,27,29,31-dodecaene-3,5-dione] | 99 % of control | 89 % of control | 77 % of control | 104 % of control | 74 % of control | 88 % of control | 108 % of control | 139 % of control | 132 % of control | 114 % of control | 99 % of control | 92 % of control | 91 % of control | 126 % of control | 99 % of control | 118 % of control | 12 % of control | 92 % of control
